In publication PMC7315583, “Structure and Dynamics of a Thermostable Alcohol Dehydrogenase from the Antarctic Psychrophile Moraxella sp. TAE123” (ACS Omega, 2020):

Molecular target: MoADH (His-tagged alcohol dehydrogenase from Moraxella sp. TAE123) (Moraxella sp. TAE123, UniProt Q8GIX7)
Parameters: gene adh
Conditions: turnover, fixed 35 mM ethanol, NAD+ varied 0-4.0 mM; pH 7.4; 10-53 °C

Chain of MoADH (His-tagged alcohol dehydrogenase from Moraxella sp. TAE123) (Q8GIX7 whole entry): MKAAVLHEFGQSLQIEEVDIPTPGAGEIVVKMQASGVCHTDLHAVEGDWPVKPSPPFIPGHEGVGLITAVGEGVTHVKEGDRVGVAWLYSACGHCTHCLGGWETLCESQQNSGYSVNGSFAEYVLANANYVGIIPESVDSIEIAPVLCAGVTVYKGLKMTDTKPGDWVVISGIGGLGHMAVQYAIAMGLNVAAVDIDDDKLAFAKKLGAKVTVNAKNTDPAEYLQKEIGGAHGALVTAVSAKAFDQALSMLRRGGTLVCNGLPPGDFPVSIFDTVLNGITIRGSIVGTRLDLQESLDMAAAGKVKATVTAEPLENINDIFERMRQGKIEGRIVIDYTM

CCO [ethanol]
NADH absorbance at 340 nm, microplate reader: Ethanol oxidation reaction rates have been measured as a function of temperature
